Tests used:
barnyard grass [1] = test: Test Example 3: herbicidal effect by foliage application, Wagner pot (Table 18, symbol H); type: in vivo, barnyard grass (Echinochloa crus-galli); conditions: 320 g/ha
Summary of the method: (§1)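 Plants were sown in alluvial soil held under 0.1–0.5 cm standing water and grown 14 days in a greenhouse at 25–30 °C. An emulsifiable formulation, water-diluted to the set dose, was then sprayed onto the foliage, and effects were scored three weeks later using previously defined criteria.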

Chinese sprangletop = test: Test Example 3: herbicidal effect by foliage application, Wagner pot (Table 18, symbol D); type: in vivo, chinese sprangletop (Leptochloa chinensis); conditions: 320 g/ha
Summary of the method: as §1

rice flat sedge = test: Test Example 3: herbicidal effect by foliage application, Wagner pot (Table 18, symbol E); type: in vivo, rice flat sedge (Cyperus iria); conditions: 320 g/ha
Summary of the method: as §1

southern crabgrass [2] = test: Test Example 4: herbicidal effect by soil treatment (Table 19, symbol F); type: in vivo, southern crabgrass (Digitaria ciliaris)
Summary of the method: (§2)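 Scoring uses the grading scale of an earlier test, three weeks post-application. Treatment consists of spraying a diluted emulsion formulation across the surface of sterilized diluvial soil in which seeds are buried near 1.5 cm deep; boxes are kept in a greenhouse between 25° C. and 30° C.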

green foxtail [3] = test: Test Example 4: herbicidal effect by soil treatment (Table 19, symbol G); type: in vivo, green foxtail (Setaria viridis)
Summary of the method: as §2

barnyard grass [4] = test: Test Example 4: herbicidal effect by soil treatment (Table 19, symbol H); type: in vivo, barnyard grass (Echinochloa crus-galli)
Summary of the method: as §2

wild oat [5] = test: Test Example 4: herbicidal effect by soil treatment (Table 19, symbol I); type: in vivo, wild oat (Avena fatua)
Summary of the method: as §2

blackgrass [6] = test: Test Example 4: herbicidal effect by soil treatment (Table 19, symbol J); type: in vivo, blackgrass (Alopecurus myosuroides)
Summary of the method: as §2

Italian ryegrass [7] = test: Test Example 4: herbicidal effect by soil treatment (Table 19, symbol K); type: in vivo, Italian ryegrass (Lolium multiflorum)
Summary of the method: as §2

windgrass [8] = test: Test Example 4: herbicidal effect by soil treatment (Table 19, symbol L); type: in vivo, windgrass (Apera spica-venti)
Summary of the method: as §2

velvetleaf [9] = test: Test Example 4: herbicidal effect by soil treatment (Table 19, symbol M); type: in vivo, velvetleaf (Abutilon theophrasti)
Summary of the method: as §2

redroot pigweed [10] = test: Test Example 4: herbicidal effect by soil treatment (Table 19, symbol N); type: in vivo, redroot pigweed (Amaranthus retroflexus)
Summary of the method: as §2

lambsquarters [11] = test: Test Example 4: herbicidal effect by soil treatment (Table 19, symbol O); type: in vivo, lambsquarters (Chenopodium album)
Summary of the method: as §2

chickweed [12] = test: Test Example 4: herbicidal effect by soil treatment (Table 19, symbol P); type: in vivo, common chickweed (Stellaria media)
Summary of the method: as §2

false cleavers [13] = test: Test Example 4: herbicidal effect by soil treatment (Table 19, symbol Q); type: in vivo, false cleavers (Galium spurium)
Summary of the method: as §2

persian speedwell [14] = test: Test Example 4: herbicidal effect by soil treatment (Table 19, symbol R); type: in vivo, Persian speedwell (Veronica persica)
Summary of the method: as §2

southern crabgrass [15] = test: Test Example 5: herbicidal effect by foliage application, plastic box (Table 20, symbol F); type: in vivo, southern crabgrass (Digitaria ciliaris); conditions: foliage application, 320 g/ha, evaluated three weeks after application
Summary of the method: (§3)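 Post-emergence foliar test in sterilized diluvial soil. Compound applied as water-diluted emulsion at a predetermined rate to 14-day-old plants; evaluation at three weeks.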

green foxtail [16] = test: Test Example 5: herbicidal effect by foliage application, plastic box (Table 20, symbol G); type: in vivo, green foxtail (Setaria viridis); conditions: foliage application, 320 g/ha, evaluated three weeks after application
Summary of the method: as §3

barnyard grass [17] = test: Test Example 5: herbicidal effect by foliage application, plastic box (Table 20, symbol H); type: in vivo, barnyard grass (Echinochloa crus-galli); conditions: foliage application, 320 g/ha, evaluated three weeks after application
Summary of the method: as §3

wild oat [18] = test: Test Example 5: herbicidal effect by foliage application, plastic box (Table 20, symbol I); type: in vivo, wild oat (Avena fatua); conditions: foliage application, 320 g/ha, evaluated three weeks after application
Summary of the method: as §3

blackgrass [19] = test: Test Example 5: herbicidal effect by foliage application, plastic box (Table 20, symbol J); type: in vivo, blackgrass (Alopecurus myosuroides); conditions: foliage application, 320 g/ha, evaluated three weeks after application
Summary of the method: as §3

Italian ryegrass [20] = test: Test Example 5: herbicidal effect by foliage application, plastic box (Table 20, symbol K); type: in vivo, Italian ryegrass (Lolium multiflorum); conditions: foliage application, 320 g/ha, evaluated three weeks after application
Summary of the method: as §3

windgrass [21] = test: Test Example 5: herbicidal effect by foliage application, plastic box (Table 20, symbol L); type: in vivo, windgrass (Apera spica-venti); conditions: foliage application, 320 g/ha, evaluated three weeks after application
Summary of the method: as §3

velvetleaf [22] = test: Test Example 5: herbicidal effect by foliage application, plastic box (Table 20, symbol M); type: in vivo, velvetleaf (Abutilon theophrasti); conditions: foliage application, 320 g/ha, evaluated three weeks after application
Summary of the method: as §3

redroot pigweed [23] = test: Test Example 5: herbicidal effect by foliage application, plastic box (Table 20, symbol N); type: in vivo, redroot pigweed (Amaranthus retroflexus); conditions: foliage application, 320 g/ha, evaluated three weeks after application
Summary of the method: as §3

lambsquarters [24] = test: Test Example 5: herbicidal effect by foliage application, plastic box (Table 20, symbol O); type: in vivo, lambsquarters (Chenopodium album); conditions: foliage application, 320 g/ha, evaluated three weeks after application
Summary of the method: as §3

chickweed [25] = test: Test Example 5: herbicidal effect by foliage application, plastic box (Table 20, symbol P); type: in vivo, common chickweed (Stellaria media); conditions: foliage application, 320 g/ha, evaluated three weeks after application
Summary of the method: as §3

false cleavers [26] = test: Test Example 5: herbicidal effect by foliage application, plastic box (Table 20, symbol Q); type: in vivo, false cleavers (Galium spurium); conditions: foliage application, 320 g/ha, evaluated three weeks after application
Summary of the method: as §3

persian speedwell [27] = test: Test Example 5: herbicidal effect by foliage application, plastic box (Table 20, symbol R); type: in vivo, Persian speedwell (Veronica persica); conditions: foliage application, 320 g/ha, evaluated three weeks after application
Summary of the method: as §3

[28] = amount of applied herbicide 320 g/ha

CCCC(=O)Oc1c(C)nn(C)c(=O)c1-c1c(-c2ccc(F)cc2)sc2ccc(Cl)cc12 [2-098] was tested, and the “herbicidal effect on H (barnyard grass), rating 0-5” value (barnyard grass [1]) was 5 (Herbicidal rate of 90% or more (almost completely withered)), the “herbicidal effect on D (Chinese sprangletop), rating 0-5” value (Chinese sprangletop) was 4 (Herbicidal rate of 70% or more and less than 90%) and the “herbicidal effect on E (rice flat sedge), rating 0-5” value (rice flat sedge) was 2 (Herbicidal rate of 20% or more and less than 40%). For the same compound, the “herbicidal effect rating, F: southern crabgrass” value (southern crabgrass [2]; 320 g/ha) was 3 (Herbicidal rate of 40% or more and less than 70%), the “herbicidal effect rating, G: green foxtail” value (green foxtail [3]; 320 g/ha) was 0 (Herbicidal rate of 5% or less (almost no effect)) and the “herbicidal effect rating, H: barnyard grass” value (barnyard grass [4]; 320 g/ha) was 1 (Herbicidal rate of 5% or more and less than 20%). For the same compound, the “herbicidal effect rating, I: wild oat” value (wild oat [5]; 320 g/ha) was 2 (Herbicidal rate of 20% or more and less than 40%), the “herbicidal effect rating, J: blackgrass” value (blackgrass [6]; 320 g/ha) was 0 (Herbicidal rate of 5% or less (almost no effect)) and the “herbicidal effect rating, K: Italian ryegrass” value (Italian ryegrass [7]; 320 g/ha) was 5 (Herbicidal rate of 90% or more (almost completely withered)). For the same compound, the “herbicidal effect rating, L: windgrass” value (windgrass [8]; 320 g/ha) was 3 (Herbicidal rate of 40% or more and less than 70%), the “herbicidal effect rating, M: velvetleaf” value (velvetleaf [9]; 320 g/ha) was 3 (Herbicidal rate of 40% or more and less than 70%) and the “herbicidal effect rating, N: redroot pigweed” value (redroot pigweed [10]; 320 g/ha) was 4 (Herbicidal rate of 70% or more and less than 90%). The “herbicidal effect rating, O: lambsquarters” value (lambsquarters [11]; 320 g/ha) was 4 (Herbicidal rate of 70% or more and less than 90%), the “herbicidal effect rating, P: chickweed” value (chickweed [12]; 320 g/ha) was 4 (Herbicidal rate of 70% or more and less than 90%) and the “herbicidal effect rating, Q: false cleavers” value (false cleavers [13]; 320 g/ha) was 2 (Herbicidal rate of 20% or more and less than 40%). For the same compound, the “herbicidal effect rating, R: persian speedwell” value (persian speedwell [14]; 320 g/ha) was 4 (Herbicidal rate of 70% or more and less than 90%), the “herbicidal effect on F: southern crabgrass” value (southern crabgrass [15]) was 5 (Herbicidal rate of 90% or more (almost completely withered)) and the “herbicidal effect on G: green foxtail” value (green foxtail [16]) was 4 (Herbicidal rate of 70% or more and less than 90%). For the same compound, the “herbicidal effect on H: barnyard grass” value (barnyard grass [17]) was 4 (Herbicidal rate of 70% or more and less than 90%), the “herbicidal effect on I: wild oat” value (wild oat [18]) was 5 (Herbicidal rate of 90% or more (almost completely withered)) and the “herbicidal effect on J: blackgrass” value (blackgrass [19]) was 4 (Herbicidal rate of 70% or more and less than 90%). The “herbicidal effect on K: Italian ryegrass” value (Italian ryegrass [20]) was 5 (Herbicidal rate of 90% or more (almost completely withered)), the “herbicidal effect on L: windgrass” value (windgrass [21]) was 5 (Herbicidal rate of 90% or more (almost completely withered)) and the “herbicidal effect on M: velvetleaf” value (velvetleaf [22]) was 4 (Herbicidal rate of 70% or more and less than 90%). The “herbicidal effect on N: redroot pigweed” value (redroot pigweed [23]) was 5 (Herbicidal rate of 90% or more (almost completely withered)), the “herbicidal effect on O: lambsquarters” value (lambsquarters [24]) was 4 (Herbicidal rate of 70% or more and less than 90%) and the “herbicidal effect on P: chickweed” value (chickweed [25]) was 5 (Herbicidal rate of 90% or more (almost completely withered)). The “herbicidal effect on Q: false cleavers” value (false cleavers [26]) was 3 (Herbicidal rate of 40% or more and less than 70%) and the “herbicidal effect on R: persian speedwell” value (persian speedwell [27]) was 5 (Herbicidal rate of 90% or more (almost completely withered)).
In the case of CCOc1ccccc1-c1sc2ccc(Cl)cc2c1-c1c(O)c(C)nn(C)c1=O [2-105], the “herbicidal effect on H (barnyard grass), rating 0-5” value (barnyard grass [1]) is reported as 4 (Herbicidal rate of 70% or more and less than 90%), the “herbicidal effect on D (Chinese sprangletop), rating 0-5” value (Chinese sprangletop) is reported as 0 (Herbicidal rate of 5% or less (almost no effect)) and the “herbicidal effect on E (rice flat sedge), rating 0-5” value (rice flat sedge) is reported as 3 (Herbicidal rate of 40% or more and less than 70%). For the same compound, the “F: southern crabgrass, herbicidal effect rating” value (southern crabgrass [2]; [28]) was 3 (Herbicidal rate of 40% or more and less than 70%), the “G: green foxtail, herbicidal effect rating” value (green foxtail [3]; [28]) was 2 (Herbicidal rate of 20% or more and less than 40%) and the “H: barnyard grass, herbicidal effect rating” value (barnyard grass [4]; [28]) was 3 (Herbicidal rate of 40% or more and less than 70%). For the same compound, the “I: wild oat, herbicidal effect rating” value (wild oat [5]; [28]) was 0 (Herbicidal rate of 5% or less (almost no effect)), the “J: blackgrass, herbicidal effect rating” value (blackgrass [6]; [28]) was 0 (Herbicidal rate of 5% or less (almost no effect)) and the “K: Italian ryegrass, herbicidal effect rating” value (Italian ryegrass [7]; [28]) was 0 (Herbicidal rate of 5% or less (almost no effect)). For the same compound, the “L: windgrass, herbicidal effect rating” value (windgrass [8]; [28]) was 0 (Herbicidal rate of 5% or less (almost no effect)), the “M: velvetleaf, herbicidal effect rating” value (velvetleaf [9]; [28]) was 3 (Herbicidal rate of 40% or more and less than 70%) and the “N: redroot pigweed, herbicidal effect rating” value (redroot pigweed [10]; [28]) was 5 (Herbicidal rate of 90% or more (almost completely withered)). The “O: lambsquarters, herbicidal effect rating” value (lambsquarters [11]; [28]) was 4 (Herbicidal rate of 70% or more and less than 90%), the “P: chickweed, herbicidal effect rating” value (chickweed [12]; [28]) was 3 (Herbicidal rate of 40% or more and less than 70%) and the “Q: false cleavers, herbicidal effect rating” value (false cleavers [13]; [28]) was 4 (Herbicidal rate of 70% or more and less than 90%). For the same compound, the “R: persian speedwell, herbicidal effect rating” value (persian speedwell [14]; [28]) was 3 (Herbicidal rate of 40% or more and less than 70%), the “herbicidal effect on F: southern crabgrass” value (southern crabgrass [15]) was 4 (Herbicidal rate of 70% or more and less than 90%) and the “herbicidal effect on G: green foxtail” value (green foxtail [16]) was 0 (Herbicidal rate of 5% or less (almost no effect)). The “herbicidal effect on H: barnyard grass” value (barnyard grass [17]) was 0 (Herbicidal rate of 5% or less (almost no effect)), the “herbicidal effect on I: wild oat” value (wild oat [18]) was 1 (Herbicidal rate of 5% or more and less than 20%) and the “herbicidal effect on J: blackgrass” value (blackgrass [19]) was 0 (Herbicidal rate of 5% or less (almost no effect)). For the same compound, the “herbicidal effect on K: Italian ryegrass” value (Italian ryegrass [20]) was 0 (Herbicidal rate of 5% or less (almost no effect)), the “herbicidal effect on L: windgrass” value (windgrass [21]) was 0 (Herbicidal rate of 5% or less (almost no effect)) and the “herbicidal effect on M: velvetleaf” value (velvetleaf [22]) was 5 (Herbicidal rate of 90% or more (almost completely withered)). The “herbicidal effect on N: redroot pigweed” value (redroot pigweed [23]) was 5 (Herbicidal rate of 90% or more (almost completely withered)), the “herbicidal effect on O: lambsquarters” value (lambsquarters [24]) was 3 (Herbicidal rate of 40% or more and less than 70%) and the “herbicidal effect on P: chickweed” value (chickweed [25]) was 5 (Herbicidal rate of 90% or more (almost completely withered)). The “herbicidal effect on Q: false cleavers” value (false cleavers [26]) was 5 (Herbicidal rate of 90% or more (almost completely withered)) and the “herbicidal effect on R: persian speedwell” value (persian speedwell [27]) was 5 (Herbicidal rate of 90% or more (almost completely withered)).
